According to patent US6417399B1, “Amelioration of neurological disorders by the administration of (2R),(3S), and/or (2S),3(S) stereoisomers of valnoctamide” (Yissum Research Development Company of the Hebrew …, priority 1997, dated 2002):
Several values for one entry are separate records, joined by “and”; a condition that tells them apart may be missing. Equal values may be shown once. Values belong to the compound of their own block, whether it stands above or below them.

Experiments:
[1] = in vivo; cited from earlier work
epoxide hydrolase = biological target: T1, epoxide hydrolase (Homo sapiens, UniProt P07099); conditions: racemic VCD; cited from earlier work
T1 construct: decreased clearance of CBZ-E in patients; host or cells: patients in vivo (endogenous enzyme)
T1 sequence (P07099 1-455): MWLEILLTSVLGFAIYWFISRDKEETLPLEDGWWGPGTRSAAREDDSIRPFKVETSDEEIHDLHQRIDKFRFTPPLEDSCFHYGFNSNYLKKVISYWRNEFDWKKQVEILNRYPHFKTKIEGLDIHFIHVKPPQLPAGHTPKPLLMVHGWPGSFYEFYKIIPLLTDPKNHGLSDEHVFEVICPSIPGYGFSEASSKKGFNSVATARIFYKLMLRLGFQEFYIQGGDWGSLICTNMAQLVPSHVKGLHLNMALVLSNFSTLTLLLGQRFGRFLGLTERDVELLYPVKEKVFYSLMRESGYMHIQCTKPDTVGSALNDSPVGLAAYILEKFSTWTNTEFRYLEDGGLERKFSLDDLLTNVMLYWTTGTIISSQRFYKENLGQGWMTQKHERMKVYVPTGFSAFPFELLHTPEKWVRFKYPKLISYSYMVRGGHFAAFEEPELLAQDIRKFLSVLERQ

[2] = animal models; cited from earlier work
[3] = in animals; cited from earlier work
[4] = Pharmacokinetics of VCD stereoisomers in plasma after repeated oral dosing of racemic valnoctamide to epileptic patients; type: in vivo, human; conditions: repeated oral racemic VCD 200 mg tid, last day
Description: (§1) Patients Six epileptic patients (four men and two women aged 23-35 years, with a body weight of 56-85 kg) were studied. All had been receiving a constant carbamazepine dose (800-1200 mg/day) for at least three months. One patient was also receiving phenytoin (250 mg/day) and a second patient phenobarbital (150 mg/day). Each patient received add-on VCD for eight consecutive days at a dosage of 400 mg on day 1 (single dose day), followed by 200 mg three times daily (tid) for seven days. On the last day, only the morning and the midday doses were administered. Blood samples for plasma VCD levels were collected at 0, 0.25, 0.5, 1, 1.5, 2, 3, 4, 5, 6, 8, 10, 12 and 24 hours after the first and the last morning dose. Additional samples were taken at times 0, 0.5, 1, and 2 hours after the morning dose on the last treatment day.
(§2) Plasma Handling and Analytical Assays Plasma samples were separated immediately by centrifugation at 2,000 g for 10 minutes and stored at −20° C. until assaying (VCD is stable at −20° C.). The VCD plasma samples were analyzed by a gas chromatograph (HP 5890 series II)-mass spectrometer (HP 5989A)-GC-MS data system equipped with chiral capillary column. The mass spectrometer was operated in E1 mode at 70eV, the source temperature of the MS was maintained at 200° C. and the quadruple at 100° C. Mass units and their relative abundance were calibrated with perfluorotributylamine (PFTBA). Spectra were collected in the range of […], and the chiral analysis started 18 minutes after injection. Gas chromatograph (GC) oven temperature programming conditions were as follows: 50° C. for 1 minute, then increasing at a rate of 8° C./minute until 100° C., holding for a minute then 4° C./minute until reaching a final temperature of 250° C. The injector temperature is 240° C. and the GC-MS transfer line temperature is 250° C. Inlet pressure is 5 psi with a linear flow rate 20 cm/second. Helium was used as the carrier gas. Chromatographic resolution of the VCD stereoisomers was accomplished by a direct separation on a chiral stationary phase (CSP) column. The CSP consisted of a Chirasil-γ-Dex (octakis (3-O-butanoyl-2,6-di-o-pentyl)-γ-cyclodextrin chemically linked via a 6-mono-octamethylene spacer to a dimethylpolysiloxane. The 0.25 μm Chirasil-γ-Dex was coated on a 25 m×250 μm (id) fused silica capillary column. This CSP of a cyclodextin derivative allows complete baseline resolution of the four stereoisomers (α=1.04, Rs=2.0-2.4) in 24 minutes as depicted in FIG. 2. Intra and inter-day variability in the retention times of the four VCD stereoisomers was less than 10%. A calibration curve was established by spiking drug-free plasma samples with known amounts of racemic VCD at a concentration range of 0.2 mg/L to 8 mg/L (or 0.05 mg/L to 2 mg/L of each of the four VCD stereoisomers).
(§3) Pharmacokinetic and Statistical Analysis Pharmacokinetic parameters were calculated by noncompartmental analysis according to statistical moment theory. Peak plasma concentrations (Cmax) and peak times (tmax) were derived directly from the measured values. The linear terminal slopes (λ) of the log-concentration of each VCD stereoisomer versus time curves were calculated by the peeling procedure. Half life (t½) values were calculated as 0.693/λ. Areas under the plasma concentration versus time curve (AUC), after single dosing, were calculated by the trapezoidal rule with extrapolation to infinity by dividing the last measured concentration by the terminal slope. During repeated administration AUC was calculated over the last two dosing intervals by using the trapezoidal rule. Mean residence time (MRT) was calculated after single dosing as AUMC/AUC, in which AUMC is the area under the concentration×time product versus time curve from zero to infinity. Following single dosing, oral clearance (CL/F, in which F is the oral availability) and apparent volume of distribution at steady state (Vss/F) were calculated as Dose/AUC and as MRT×CL/F, respectively. […]

[5] = Pharmacokinetics of VCD stereoisomers in plasma after single oral dose of racemic valnoctamide to epileptic patients; type: in vivo, human; conditions: for CL/F / Cmax / MRT / tmax / t½: single oral 400 mg racemic VCD
Description: as §1, §2, §3

[6] = Pharmacokinetics of VCD stereoisomers in plasma after single oral dose of racemic valnoctamide to healthy subjects; type: in vivo, human
Description: Healthy Subjects Seven healthy male volunteers, aged 20-31 years, weighing 61 to 85 kg, received 2×200 mg valnoctamide tablets (Nirvanil@) at 08:00 hours after an overnight fast. Venous blood samples were taken through an indwelling catheter 0, 0.5, 1, 2, 3, 4, 5, 6, 8, 10, 12 and 24 hours after dosing. Food was witheld for 4 hours after dosing.
as §2
Pharmacokinetic and Statistical Analysis Pharmacokinetic parameters were calculated by noncompartmental analysis according to statistical moment theory. Peak plasma concentrations (Cmax) and peak times (tmax) were derived directly from the measured values. The linear terminal slopes (λ) of the log-concentration of each VCD stereoisomer versus time curves were calculated by the peeling procedure. Half life (t½) values were calculated as 0.693/λ. Areas under the plasma concentration versus time curve (AUC), after single dosing, were calculated by the trapezoidal rule with extrapolation to infinity by dividing the last measured concentration by the terminal slope. During repeated administration AUC was calculated over the last two dosing intervals by using the trapezoidal rule. Mean residence time (MRT) was calculated after single dosing as AUMC/AUC, in which AUMC is the area under the concentration×time product versus time curve from zero to infinity. Following single dosing, oral clearance (CL/F, in which F is the oral availability) and apparent volume of distribution at steady state (Vss/F) were calculated as Dose/AUC and as MRT×CL/F, respectively. Following repeated dosing, CL/F was calculated from the quotient of the dose (200 mg) and the AUC obtained during one dosing interval (defined as one-half of the AUC calculated over two consecutive dosing intervals). Comparison of the pharmacokinetic parameters of all four VCD stereoisomers was made by ANOVA.

[7] = Mean ± SD of six epileptic patients
[8] = individual epileptic patients on carbamazepine
[9] = Mean ± SD of seven healthy subjects, single oral 400 mg racemic VCD
[10] = individual healthy subjects, single oral 400 mg racemic VCD

SMILES: CCC(C)C(CC)C(N)=O (racemic) [VCD, 2-ethyl-3-methyl pentanamide]
half-life relative to that of VPD [1]: ten times higher
inhibition of the enzyme epoxide hydrolase (epoxide hydrolase): inhibitor of the enzyme epoxide hydrolase
anticonvulsant potency relative to VPA [2]: three times more potent

SMILES: CCCC(CCC)C(N)=O [VPD, Valpromide]
anticonvulsant potency relative to VPA [2]: three times more potent
teratogenicity [3]: has not been found to be teratogenic

CL/F [4, 7]: 29 ± 6 L/h
Cmax [4, 7]: 0.6 ± 0.1 mg/L
tmax [4, 7]: 1.4 ± 0.3 h
t½ [4, 7]: 3.2 ± 1.4 h
CL/F [5, 7]: 46 ± 11 L/h
Cmax [5, 7]: 0.61 ± 0.11 mg/L
MRT [5, 7]: 4.7 ± 1.0 h
tmax [5, 7]: 0.83 ± 0.51 h
t½ [5, 7]: 3.3 ± 1.1 h
half lives ([5]; epileptic patients): about 3 h
tmax [5, 8]: 1.5 h (2×) and 0.5 h (4×)
t½ [5, 8]: 1.2 h and 3.8 h (3×) and 2.7 h and 3.9 h
CL/F [6, 9]: 4.6 ± 0.7 L/h
Cmax [6, 9]: 1.5 ± 0.2 mg/L
MRT [6, 9]: 15 ± 3 h
tmax [6, 9]: 0.7 ± 0.3 h
t½ [6, 9]: 10 ± 2 h
t½ ([6]; Mean ± SD of seven healthy subjects, single oral 400 mg racemic VCD, listed as D): approximately 10 h
tmax [6, 10]: 1 h (3×) and 0.5 h (4×)
SMILES: CCC(C)C(CC)C(N)=O (single isomer, unassigned; stereoisomer d) [Stereoisomer D]
CL/F ([4]; individual epileptic patients): 36 L/h and 25 L/h (3×) and 38 L/h and 24 L/h
Cmax ([4]; individual epileptic patients): 0.7 mg/L and 0.8 mg/L and 0.6 mg/L (3×) and 0.5 mg/L
tmax ([4]; individual epileptic patients): 2.0 h and 1.5 h (3×) and 1.0 h and 1.25 h
t½ ([4]; individual epileptic patients, last dosing interval): 2.1 h and 2.8 h and 5.2 h and 2.5 h and 5.3 h and 4.6 h
CL/F [5, 8]: 60 L/h and 35 L/h and 45 L/h and 42 L/h (2×) and 30 L/h
Cmax [5, 8]: 0.51 mg/L (3×) and 0.72 mg/L (2×) and 0.69 mg/L
MRT [5, 8]: 3.3 h and 5.2 h and 4.5 h and 5.6 h and 5.4 h and 5.3 h
CL/F [6, 10]: 4.3 L/h and 5.6 L/h and 4.8 L/h and 3.8 L/h and 5.4 L/h and 4.7 L/h and 4.1 L/h
Cmax [6, 10]: 1.5 mg/L (3×) and 1.3 mg/L and 1.6 mg/L and 1.4 mg/L and 1.8 mg/L
MRT [6, 10]: 13 h (2×) and 18 h (2×) and 12 h (2×) and 19 h
t½ ([6]; individual healthy subjects, single oral 400 mg racemic VCD (Nirvanil), stereoisomer in plasma): 8.7 h and 12.9 h and 8.0 h and 13.0 h and 9.5 h and 7.9 h and 13 h
